Patent US20090253796A1, “METHOD FOR TREATING VASCULAR DISEASE” (Research Foundation Itsuu Laboratory, priority 2002, published 2009)

Assays:
[1] = system: KLF5/BTEB2+/- mice; experiment: Cuff injury in KLF5/BTEB2+/- knockout mice; type: in vivo; conditions: in which granulation was otherwise suppressed
From the text: It is known that various kinds of growth factors are induced in blood vessel walls against affections in the cardiovascular system remodeling. By using mice (KLF5/BTEB2+/−mice) with hetero-knockout of Zn finger type transcription factor KLF5/BTEB2, which is strongly expressed in neointima of injured blood vessels among such growth factors, studies were made to know whether or not the effect of proliferation of neointima was induced by the retinoid action.

[2] = system: human umbilical artery endothelial cells; experiment: BrdU uptake (proliferation) of endothelial cells; type: cell-based; conditions: for ratio of uptake of BrdU relative to the uptake without Am80: Endothelial cell, 10% fetal bovine serum, BrdU added after 24 hours, measured for 4 hours
Experimental: (§1) Rat aorta smooth muscle cells and human umbilical artery endothelial cells were cultured in the presence of 10% fetal bovine serum, and added with Am80 at various concentrations. After 24 hours, BrdU was added to the culture medium, and BrdU uptake ability was measured for 4 hours. The ratios of uptake of BrdU at the various concentrations relative to the uptake obtained without addition of Am80 are summarized in the table. The BrdU uptake ability represents DNA synthesis ability in proportion to the proliferation.

[3] = system: cuff-injured femoral arteries of wild-type mice (129SVxC57BL6); experiment: Cuff-injured femoral artery model; type: in vivo; conditions: for neointima of injured blood vessel (in words) / granulation around the cuff (in words): 5 mg/kg/day
Experimental: Polyethylene tube cuffs were indwelled in femoral arteries of wild-type mice (129SVxC57BL6) to injure the arteries. Am80 was orally administered at a dose of 5 mg/kg/day, and after 5 weeks, appearance and cross sections of the injured sites were evaluated. Areas of neointima of the femoral artery covered with the tube cuff and granulation tissue around the cuff were measured.

[4] = system: angiotensin II hypercardia model mice; experiment: Angiotensin II hypercardia model; type: in vivo
Experimental: Mice were administered with angiotensin II at a dose of 3.2 mg/kg/day for two weeks by using an osmotic pressure pump to prepare hypercardia models. After 2 weeks, hypercardia, stromal fibrosing, and fibrosing around coronary artery were observed.

[5] = system: rabbit common iliac artery; experiment: Restenosis after indwelling of stent in common iliac artery; type: in vivo; conditions: rabbits, oral 1 mg/kg every day, 4 weeks after indwelling of the stent, p<0.05 vs control group
Experimental: Internal diameter of a rabbit common iliac artery was measured by intravascular ultrasound imaging (IVUS), and then a balloon was expanded to a size of 1 to 1.1 times of the internal diameter and a stent was indwelled. After the indwelling, the internal diameter was measured again by IVUS to confirm that the internal diameter changed 1 to 1.1 times and the stent was precisely indwelled. For each of the control group and Am80-administrated group, 6 rabbits were used. The rabbits were orally administered with Am80 at a dose of 1 mg/kg every day, and 4 weeks after the indwelling of the stent, the arteries at the stent-indwelled sites were collected and fixed to examine tissue images. Serial sections were prepared for the proximal, intermediary, and distal positions within the stent, and areas of tunica media and intima were measured.

[6] = system: Rat aorta smooth muscle cells; experiment: BrdU uptake (proliferation) of smooth muscle cells; type: cell-based; conditions: for ratio of uptake of BrdU relative to the uptake without Am80: Smooth muscle cell, 10% fetal bovine serum, BrdU added after 24 hours, measured for 4 hours
Experimental: as §1

Row | SMILES | granulation (in words) [1] | ratio of uptake of BrdU relative to the uptake without Am80 ([2]; 0.3 μM) | ratio of uptake of BrdU relative to the uptake without Am80 ([2]; 1 μM) | ratio of uptake of BrdU relative to the uptake without Am80 ([2]; 3 μM) | ratio of uptake of BrdU relative to the uptake without Am80 ([2]; 10 μM) | antiproliferative action on vascular endothelial cells (in words) ([2]; summary statement) | neointima of injured blood vessel (in words) ([3]; mice, oral 5 mg/kg/day, after 5 weeks, compared with control mice) | neointima of injured blood vessel (in words) ([3]; mice, oral 5 mg/kg/day, after 5 weeks, compared with control mice; listed as 4-[5,6,7,8-tetrahydro-5,5,8,8-tetramethyl-2-naphthalenyl)carbamoyl]benzoic acid) | granulation around the cuff (in words) ([3]; mice, oral 5 mg/kg/day, after 5 weeks, compared with mice not administered) | granulation around the cuff (in words) ([3]; mice, oral 5 mg/kg/day, after 5 weeks, compared with mice not administered; listed as 4-[5,6,7,8-tetrahydro-5,5,8,8-tetramethyl-2-naphthalenyl)carbamoyl]benzoic acid) | Neointima area ([3]; mice, oral 5 mg/kg/day, after 5 weeks, control mice 0.0117 mm^2) [mm^2] | Granulation tissue area ([3]; mice, oral 5 mg/kg/day, after 5 weeks, control mice 1.08 mm^2) [mm^2] | onsets of hypercardia, stromal fibrosing, and fibrosing around coronary artery ([4]; angiotensin II 3.2 mg/kg/day plus 5 mg/kg/day compound for two weeks) | Heart weight/body weight ([4]; angiotensin II 3.2 mg/kg/day plus Am80 5 mg/kg/day for two weeks, control mice 5.65 ± 0.195 mg/g) [mg/g] | ratio of intima/tunica media [5] | ratio of uptake of BrdU relative to the uptake without Am80 ([6]; 0.3 μM) | ratio of uptake of BrdU relative to the uptake without Am80 ([6]; 1 μM) | ratio of uptake of BrdU relative to the uptake without Am80 ([6]; 3 μM) | ratio of uptake of BrdU relative to the uptake without Am80 ([6]; 10 μM) | antiproliferative action on vascular smooth muscle cells (in words) ([6]; summary statement)
1 | CN1c2cc3c(cc2N=C(c2ccc(C(=O)O)cc2)c2ccccc21)C(C)(C)CCC3(C)C [LE135, 4-(5H-7,8,9,10-tetra-hydro-5,7,7,10,10-pentamethylbenzo[e]naphtho[2,3-b][1,4]-diazepin-13-yl)benzoic acid] | strong granulation was observed | – | – | – | – | – | – | – | – | – | – | – | – | – | – | – | – | – | – | –
2 | CC1(C)CCC(C)(C)c2cc(NC(=O)c3ccc(C(=O)O)cc3)ccc21 [Am80] | – | 95.1 | 109.4 | 104.0 | 102.1 | substantially no antiproliferative action | significantly decreased | superior antiproliferative action on neointima | markedly suppressed | markedly suppressed granulation | 0.0019 | 0.44 | markedly suppressed | 4.78 ± 0.170 | significantly decreased | 95.5 | 78.5 | 74.4 | 68.8 | substantially had antiproliferative action
